# Test system: mouse-derived muscle cell line C2C12 (myotube cells)
# Experiment: Evaluation of muscle insulin signal (pAkt Ser473/total Akt, Western blotting) in myotubes exposed to palmitic acid (FFA)
# Format: cell-based
# Conditions: FIG. 2; for muscle insulin signal lowered by FFA (phosphorylation index, [(pAkt/Total Akt) Insulin+]/[(pAkt/Total Akt) Insulin-]): amino acid 1 mM added simultaneously with 0.5 mM palmitic acid (FFA), 100 nM insulin stimulation; for action on muscle insulin signal compared with positive control NAC: amino acid 1 mM versus N-acetylcysteine (NAC) 5 mM, 0.5 mM FFA
# Procedure: Using mouse C3H skeletal muscle myoblast (C2C12 cell) (DS Pharma Biomedical Co., Ltd.), the evaluation was performed. Induction of differentiation into myotube cells (Myotubes) was performed using cells with myoblast passage number of 12 to 18. Myoblasts were seeded in a 12-well (diameter=3 cm) plate at 0.3×10^5 to 0.5×10^5/well. After confirmation that the cell proliferation state reached 90% confluent, the medium was replaced with DMEM culture medium supplemented with 2(w/v) % horse serum (HS) and 1(w/v) % penicillin-streptomycin-[…](w/v) % HS, 1(w/v) % […](w/v) % Gln/DMEM), and differentiation into myotube cells (Myotubes) was induced. After confirmation of differentiation into myotube cells (Myotubes), a muscle insulin signal evaluation system was constructed, and the action of each of isoleucine, glycine, and cystine was evaluated using the constructed evaluation system. […] After culturing overnight, the cells were preincubated for about 2 hr in DMEM (BSA/FFA free) with an amino acid concentration of 1/5, stimulated by incubation (15 min-20 min) with 100 nM insulin, and the myotube cells were collected (each n=3). From the collected cells, proteins were extracted with RIPA (Radio-Immunoprecipitation Assay) buffer (Cell Signaling Technologies Inc.), adjusted to a final protein concentration of 0.5 mg/mL, and used as samples. The expression levels of phosphorylated Akt (pAkt) (Ser473) and [NT] in the above-mentioned sample were quantified by the Western blotting (WB) method using anti-phosphorylated Akt (pAkt) (Ser473) antibody (#92715; Cell Signaling Technologies Inc.) and anti-[NT] antibody (#9272S; Cell Signaling Technologies Inc.). The expression level of each protein was quantified using Western blot-chemiluminescent imaging system (Fusion FX) (Vilber-Lourmat Inc.). Each amino acid was added simultaneously with FFA, and the muscle quality-improving effect was examined with the recovery of the muscle insulin signal as an index. The final concentration of each amino acid was adjusted to 1 mM. As a positive control, an antioxidative active substance N-acetylcysteine (NAC) 5 mM was used. From the measurement results of the expression levels of phosphorylated Akt (Ser473) and total Akt, the ratio of phosphorylated Akt and total Akt with insulin stimulation to the ratio of phosphorylated Akt and total Akt without insulin stimulation [(pAkt/Total Akt) Insulin+]/[(pAkt/Total Akt) Insulin-] was determined and shown in FIG. 2 as the phosphorylation index (stimulation index). In FIG. 2, the phosphorylation index is shown as mean±standard error for each sample.
Compound,"muscle insulin signal lowered by FFA (phosphorylation index, [(pAkt/Total Akt) Insulin+]/[(pAkt/Total Akt) Insulin-])",action on muscle insulin signal compared with positive control NAC
"N[C@@H](CSSC[C@H](N)C(=O)O)C(=O)O [cystine, L-cystine]",restore the muscle insulin signal lowered by FFA,equal to or higher than that of NAC
NCC(=O)O [glycine],restore the muscle insulin signal lowered by FFA,equal to or higher than that of NAC
"CC[C@H](C)[C@H](N)C(=O)O [isoleucine, L-isoleucine]",restore the muscle insulin signal lowered by FFA,equal to or higher than that of NAC

# Reference: US20210308084A1, “AGENT FOR IMPROVING MUSCLE QUALITY” (AJINOMOTO CO., INC., priority 2018, published 2021)
